Reference: PubChem BioAssay (NCI)
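Method: 48-hour compound exposure of cells in 96-well plates, five concentrations, linear interpolation of endpoints. Abbreviation: GI50, concentration required for 50% inhibition of growth. The concentration for full growth arrest is given as TGI.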

Columns and labels:
Experiment in all cases: DTP human tumour cell line panel, 48 h
U251 CNS = tested on: U251 CNS
RPMI-8226 leukemia = tested on: RPMI-8226 leukemia
LOX IMVI melanoma = tested on: LOX IMVI melanoma
A549 NSCLC = tested on: A549 NSCLC
MDA-N = tested on: MDA-N
SW-620 colon = tested on: SW-620 colon
PC-3 prostate = tested on: PC-3 prostate
BT-549 breast = tested on: BT-549 breast
HCT-116 colon = tested on: HCT-116 colon
A498 renal = tested on: A498 renal
SNB-75 CNS = tested on: SNB-75 CNS

| Compound | TGI (U251 CNS) [µM] | TGI (RPMI-8226 leukemia) [µM] | TGI (LOX IMVI melanoma) [µM] | TGI (A549 NSCLC) [µM] | TGI (MDA-N) [µM] | TGI (SW-620 colon) [µM] | TGI (PC-3 prostate) [µM] | TGI (BT-549 breast) [µM] | TGI (HCT-116 colon) [µM] | TGI (A498 renal) [µM] | TGI (SNB-75 CNS) [µM] | GI50 (U251 CNS) [µM] | GI50 (RPMI-8226 leukemia) [µM] | GI50 (LOX IMVI melanoma) [µM] | GI50 (A549 NSCLC) [µM] | GI50 (SW-620 colon) [µM] | GI50 (SNB-75 CNS) [µM] | GI50 (PC-3 prostate) [µM] | GI50 (A498 renal) [µM] |
| --- | --- | --- | --- | --- | --- | --- | --- | --- | --- | --- | --- | --- | --- | --- | --- | --- | --- | --- | --- |
| CC(C)CC1c2[nH]c3ccccc3c2C[C@H]2C(=O)NC(CCC(=O)OC(C)(C)C)C(=O)N12 (some centres undefined) | > 100 | 67.2 | 60.6 | > 100 | > 100 | > 100 | 69 | > 100 | > 100 | > 100 |  |  |  |  |  |  |  |  |  |
| O=S(O)c1cc(Cl)cc(Cl)c1O | > 100 |  | > 100 |  |  |  |  |  | > 100 | > 100 | > 100 |  |  |  |  |  |  |  |  |
| COc1cc(-c2coc3c(OC)c(OC4OC(CO)C(O)C(O)C4O)c(OC)cc3c2=O)cc(OC)c1C (centres undefined) | > 34.6 | > 100 | > 31.2 | > 55.6 | 46.7 | > 41.3 | > 54.3 | 16.1 | > 100 |  | 21.6 |  |  |  |  |  |  |  |  |
| C[C@]12CC(c3ccccc3O1)C(C(=O)NC13CC4CC(CC(C4)C1)C3)C(=O)N2 (some centres undefined) | > 100 | 31.3 | 57.9 | 71.7 | 43.8 | > 100 | > 100 | 61.8 | 41 | > 100 | 74 |  |  |  |  |  |  |  |  |
| CC(=O)OCC1OC(O[C@@H]2c3c(O)c4c(c(O)c3C3=C(NN(c5ccc([N+](=O)[O-])cc5[N+](=O)[O-])[Se]3=O)[C@@]2(C)O)C(=O)c2ccccc2C4=O)C(OC(C)=O)C(OC(C)=O)C1OC(C)=O (some centres undefined) | 0.458 | 0.372 | 0.319 | 2.07 | 0.753 | 0.339 | 1.02 | 4.23 | 0.295 | 1.11 | 6.24 |  |  |  |  |  |  |  |  |
| N#C/C=C1\C=CC(O)C(O)C1OC1OC(CO)C(O)C(O)C1O (centres undefined) | > 100 | > 100 | > 100 | > 100 | > 100 | > 100 | > 100 | > 100 | > 100 | > 100 | > 100 |  |  |  |  |  |  |  |  |
| O=C(O)C1CC(c2ccccc2)=NN1c1ccccc1 (centres undefined) | > 100 | > 100 | > 100 | > 100 | > 100 | > 100 | > 100 | > 100 | > 100 | > 100 | > 100 |  |  |  |  |  |  |  |  |
| CC1(C)COC(/C=C/C2=NC(C)(C)CO2)=N1 | 64.3 | 26.2 | 16.7 | > 100 | 48.7 | 26.9 | 51.7 | 49.8 | 25.9 | 25.4 | > 100 |  |  |  |  |  |  |  |  |
| c1ccc2sc(C3(N4CCCCC4)CCCC3)cc2c1 |  | 10.4 | 32.7 | 22.3 | 35.1 | 24.1 |  | 27.5 | 19.9 | 25.7 | 30.6 |  |  |  |  |  |  |  |  |
| C=C1C(=O)OC2C1C(OC(=O)/C(C)=C/C)CC1(C)C(=O)CCC(=C)C21 (centres undefined) | > 54.4 | 7.97 | 13.2 | 43.7 | 18.1 | 23.4 | 22.9 | 18.7 | 31.2 | 34 | 32 |  |  |  |  |  |  |  |  |
| COC(=O)C1=CC[C@@H]2C(C(=O)O)=CO[C@@H](OC3OC(CO)C(O)C(O)C3O)[C@H]12 (some centres undefined) | > 300 | > 300 | > 300 | > 300 |  | > 300 |  |  | > 300 | > 30 | > 300 |  |  |  |  |  |  |  |  |
| Fc1ccc(-c2ccc(-c3nnc(-c4cc(F)c(Cl)cc4Cl)o3)o2)cc1Cl | > 100 | 72.9 | 48.9 | > 100 |  | 98.3 | > 100 |  |  |  | > 100 | 32.8 | 26.4 | 20.8 | 37.3 | 31.9 | 30.6 | 36.9 |  |
| O=S(=O)(c1ccc(I)cc1)N(c1ccccc1)S(=O)(=O)C(F)(F)C(F)(F)C(F)(F)C(F)(F)F | > 100 | > 100 | > 100 | > 100 | > 100 | > 100 | > 100 | > 100 | 44.6 |  |  |  |  |  |  |  |  |  |  |
| [C-]#[O+].[C-]#[O+].[Ir].[O-]c1cccc2cccnc12 | > 100 |  | > 100 | > 100 |  | > 100 |  |  |  |  | > 100 | > 100 |  | > 100 | > 100 | > 100 | > 100 |  |  |
| CCOC(=O)n1cncc1CC(NC(=O)Cc1c(C(=O)C=C(C)C)[nH]c2ccccc12)C(=O)OC (centres undefined) | 44.9 | > 100 | 35.6 | 45.3 | 84.3 | > 100 | 33.6 | 37.3 | > 100 | 41.1 | 49.7 |  |  |  |  |  |  |  |  |
| COc1cccc(-c2nc3c(C(=O)NCCN(C)C)cccc3[nH]2)c1 | > 61.6 | 46.3 | 34.9 | 46.2 |  | > 54.6 |  |  | 44.2 | 32.1 | 68.1 |  |  |  |  |  |  |  |  |
| CC(C)C(N=Cc1ccccc1O)C(=O)O (centres undefined) | > 100 | > 100 | > 100 | > 100 | > 100 | > 100 | > 100 | > 100 | > 100 | > 100 |  |  |  |  |  |  |  |  |  |
| OC1CC(O)c2c(Cl)sc(Cl)c21 (centres undefined) | > 100 |  | > 100 | 89.2 | > 100 | > 100 |  | > 100 | > 100 | > 100 | 49.2 |  |  |  |  |  |  |  |  |
| C[N+]1(C)CCC(C#N)(c2ccccc2)CC1 | > 100 | > 100 |  | > 100 | > 100 | > 100 |  |  | > 100 | > 100 | > 100 |  |  |  |  |  |  |  |  |
| O=C1/C(=C\c2ccc(-c3ccc(Cl)cc3Cl)o2)SC2N=C(COc3ccc(Cl)cc3)NN12 (centres undefined) | 98.2 | > 100 | > 100 | > 100 | > 100 | > 100 | > 100 | > 100 | > 100 | 5.98 | > 100 |  |  |  |  |  |  |  |  |
| COc1ccc(SC(C)(SC)c2ccccn2)c(OC)n1 (centres undefined) | > 100 | 73.4 | > 100 | > 100 | > 100 | > 100 | > 100 | > 100 | > 100 | > 100 |  |  |  |  |  |  |  |  |  |
| CC(O)C(O)C(N)CC=O (centres undefined) | > 500 | > 500 | > 500 | > 500 |  | > 185 |  |  | > 500 | > 50 | > 500 |  |  |  |  |  |  |  |  |
| CN(C)Cc1ccc(C(=O)Nc2ccc3ncnc(Nc4ccc(Oc5cccc(F)c5)c(Cl)c4)c3c2)cc1 |  |  | 3.15 |  |  | 3.31 |  |  |  | 2.71 | 2.84 |  |  | 1.69 |  | 1.76 | 1.48 |  | 1.35 |
